From PubChem BioAssay AID588569 (Sanford-Burnham Center for Chemical Genomics, 2011) come the findings set out here.

The source made the active and inactive calls.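 Rule for the calls: active = mean IC50 of 20 µM or lower in the 6 hour cytotoxicity test; inactive = the rest.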

The experiment relates to CHO-XBP1 cytotoxicity, ATPlite luminescence, 6 h. Kind of experiment: cytotoxicity in CHO-XBP1 reporter cells, SAR follow-up, cytotoxicity control for UPR adaptive arm activator project, cell-based, 6 h exposure, ATPlite luminescence (AID 588569). (Cellular ATP, detected with luciferase, serves as a proxy for viable cell number.)
As to `Cc1ccc(NC(=O)c2cc(-c3ccncc3)nc3ccccc23)cc1`, the IC50 is > 80 µM (inactive).
Under `Cc1nc(Nc2nc(-c3ccccc3)cc(=O)[nH]2)nc2ccccc12` stands 36.4 µM (inactive).
Then `Cc1cc(Br)cc(NC(=O)c2cc(-c3ccncc3)nc3ccccc23)c1`, with > 80 µM (inactive).
Consider `O=C(Nc1ccc(C(F)(F)F)cc1)c1cc(-c2ccncc2)nc2ccccc12`, for which the IC50 was 70.4 µM (inactive).
Then `O=C(Nc1ccc(Br)c(C(F)(F)F)c1)c1cc(-c2ccncc2)nc2ccccc12`, with > 80 µM (inactive).
Under `O=C(Nc1ccc(Cl)cc1)c1cc(-c2ccncc2)nc2ccccc12` stands 75.4 µM (inactive); under `O=C(Nc1ccc(F)cc1)c1cc(-c2ccncc2)nc2ccccc12`, > 80 µM (inactive).

By IC50 is commonly meant the point on the concentration scale where inhibition reaches its midpoint.
